In the supplement of paper PMC11061612:

What was measured:
A375 (Melanoma) [1] = experiment: Bliss excess, mean over the matrix (fraction); higher = more synergy
How it was run: (§1)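 Cell lines in DMEM/F12 or RPMI with 10% FBS were plated in 1536-well plates, held 24 hours at 37°C, 5% CO2, then given two-drug dose matrices for 72 hours (DMSO typically 0.2%). Viability was read by CellTiter-Glo 2.0 luminescence and scaled as inhibition from 0 (vehicle wells) to 1 (blank wells). Combination Emax is the second-highest inhibition in the matrix; Bliss excess is observed combination effect minus expected EA + EB − EA·EB, EA and EB being single-agent effects.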

[2] = test system: ATN-1 (T-Lymphoblastic Leukemia); experiment: as above
How it was run: as §1

[3] = test system: BC-1 (B-Cell Non-Hodgkin's Lymphoma); experiment: as above
How it was run: as §1

C32 (Melanoma) [4] = experiment: as above
How it was run: as §1

[5] = test system: HT-3 (Cervical Carcinoma); experiment: as above
How it was run: as §1

[6] = test system: IGROV-1 (Ovarian Carcinoma); experiment: as above
How it was run: as §1

[7] = test system: KNS-62 (Squamous Cell Lung Carcinoma); experiment: as above
How it was run: as §1

[8] = test system: NCI-H1435 (Non-Small Cell Lung Carcinoma); experiment: as above
How it was run: as §1

[9] = test system: NCI-H2023 (Non-Small Cell Lung Carcinoma); experiment: as above
How it was run: as §1

[10] = test system: OCI-M1 (Acute Myeloid Leukemia); experiment: as above
How it was run: as §1

[11] = test system: SBC-5 (Small Cell Lung Carcinoma); experiment: as above
How it was run: as §1

SK-N-DZ (Neuroblastoma) = experiment: as above
How it was run: as §1

A375 (Melanoma) [12] = experiment: combination Emax (second highest fraction inhibited in the dose matrix, 72 h); higher = more inhibition; extreme values may be limits of the assay
How it was run: as §1

C32 (Melanoma) [13] = experiment: as above
How it was run: as §1

HT-144 (Melanoma) = experiment: as above
How it was run: as §1

MG-63 (Osteosarcoma) = experiment: as above
How it was run: as §1

[14] = test system: NCI-H2009 (Lung Adenocarcinoma); experiment: as above
How it was run: as §1

[15] = test system: RPMI-8402 (T-Lymphoblastic Leukemia); experiment: as above
How it was run: as §1

[16] = test system: SNU-1 (Gastric Carcinoma); experiment: as above
How it was run: as §1

[17] = test system: SUP-HD1 (Hodgkin's Lymphoma); experiment: as above
How it was run: as §1
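For Bliss excess, mean over the matrix in this document: after 72 h of two-drug dosing.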

Row | Compound | Bliss excess (A375 (Melanoma) [1]) | Bliss excess [2] | Bliss excess [3] | Bliss excess (C32 (Melanoma) [4]) | Bliss excess [5] | Bliss excess [6] | Bliss excess [7] | Bliss excess [8] | Bliss excess [9] | Bliss excess [10] | Bliss excess [11] | Bliss excess (SK-N-DZ (Neuroblastoma)) | combination Emax (A375 (Melanoma) [12]) | combination Emax (C32 (Melanoma) [13]) | combination Emax (HT-144 (Melanoma)) | combination Emax (MG-63 (Osteosarcoma)) | combination Emax [14] | combination Emax [15] | combination Emax [16] | combination Emax [17]
1 | CCN(CCO)CCCOc1ccc2c(Nc3cc(CC(=O)Nc4cccc(F)c4)[nH]n3)ncnc2c1 [AZD2811] + C[C@@H]1COCCN1C2=NC(=NC(=C2)C3(CC3)[S@](=N)(=O)C)C4=C5C=CNC5=NC=C4 [AZD6738] (first compound max 1 µM, 7x7, partner max 10 µM) | -0.0573 | -0.0839 | -0.1 | -0.0803 | -0.0538 | -0.0453 | -0.0546 | -0.0311 | -0.0555 | 0.0009 | -0.0236 | -0.0507 | 0.625 | 0.613 | 0.706 | 0.677 | 0.431 | 1 | 0.73 | 0.781
2 | CC(=O)c1c(C)c2cnc(Nc3ccc(N4CCNCC4)cn3)nc2n(C2CCCC2)c1=O [Palbociclib] + Cn1cnc2c(F)c(Nc3ccc(Br)cc3Cl)c(C(=O)NOCCO)cc21 [Selumetinib] (first compound max 10 µM, 7x7, partner max 10 µM) | 0.0027 | 0.0209 | 0.0124 | -0.0086 | -0.0279 | 0.0255 | 0.038 | -0.0105 | -0.0313 | 0.0125 | 0.0396 | -0.0848 | 0.705 | 0.959 | 0.896 | 0.431 | 0.363 | 0.957 | 0.491 | 0.445
3 | Cc1c2c(nn1C)CSCc1cc(n(C)n1)CSc1cc(c3ccccc3c1)OCCCc1c(C(=O)O)n(C)c3c-2c(Cl)ccc13 [AZD5991] + Cn1cnc2c(F)c(Nc3ccc(Br)cc3Cl)c(C(=O)NOCCO)cc21 [Selumetinib] (first compound max 1 µM, 7x7, partner max 3 µM) | 0.0086 | -0.0672 | 0.012 | 0.0678 | 0.0926 | 0.0372 | -0.0171 | 0.0727 | 0.0293 | 0.03 | 0 | 0.018 | 0.895 | 1 | 1 | 0.251 | 0.526 | 0.692 | 0.605 | 0.593
